“Also recorded” adds a separate entry of the source.
Legend:
HeLa cells [1] = assay: Cell morphology by transmission electron microscopy; type: cell-based, human; details: 24 h
Protocol: The in vitro influence of ESE-15-one, EMBS and ESE-16 on cell morphology was determined after exposure for 24 h using transmission electron microscopy (TEM). […] After each fixation step the samples were rinsed 3 times in 0.0075 M sodium phosphate buffer (pH 7.4). Samples were dehydrated using increasing concentrations of ethanol (30%, 50%, 70%, 90%, and 3×100%) and embedded in Quetol resin, sectioned with a microtome and placed on copper discs. Sections were contrasted with 4% aqueous uranyl acetate and Reynolds' lead citrate and viewed with a JOEL JEM 2100F transmission electron microscope (Electron Microscopy Unit, University of Pretoria, South Africa).

tubulin = assay: Tubulin polymerization assay (DAPI fluorescence); type: biochemical; details: for EC50: in vitro tubulin polymerization, read-out: tubulin polymerization inhibition EC50
Protocol: Briefly, microtubule assembly was conducted in a half area 96 well black plate using a microplate reader FLUOstar OPTIMA (BMG Labtechnologies). […] Following 10 min incubation, assembly was initiated by injection of GTP and MgCl2 to a final concentration of 1 mM and 5 mM respectively, yielding a reaction volume of 100 µl. The excitation and emission wavelengths were set at 360 and 450 nm, respectively, and the fluorescence of microtubule-bound DAPI was monitored as a function of time at 37°C. Fluorescence signal at time 0 for each well was subtracted from each of the subsequent fluorescence readings, [22].

MCF-7 cell line = details: cited from earlier work
[2] = test system: human umbilical vein endothelial cells (HUVECs); details: 500 nM, 72 hours of exposure; ref 13 (Foster et al. 2008); cited from earlier work
MDA-MB-231 = details: 500 nM, 72 hours of exposure; ref 13 (Foster et al. 2008); cited from earlier work
caspase-8 = assay: FLICE/caspase 8 colorimetric assay; type: cell-based, human; details: 0.5 μM, 24 h
Protocol: (§1) Possible activation of caspase 3, -6 and -8 was investigated by means of caspase 3, caspase 6 and FLICE/caspase 8 colorimetric kits, respectively. Cells (1,000,000) were seeded with an overnight attachment policy. After 24 h of exposure to 0.5 μM of the sulphamoylated 2ME2 analogues, cells were detached with trypsin and centrifuged at 13,000× g. Cells (500,000) were resuspended in 50 µl of chilled cell lysis buffer and incubated on ice for 10 min. Cells were centrifuged at 10,000×g for a min. Supernatant was transferred to a fresh tube and put on ice. After determination of the protein concentration using the bicinchoninic acid (BCA) protein assay (Thermo Fisher Scientific, Johannesburg, South Africa), 100 µg protein/50 µl cell lysis buffer was mixed with 50 µl 2X reaction buffer (containing 10 mM Dithiothreitol (DTT)). Ac-Asp-Glu-Val-Asp-p-nitroanilide (Ac-DEVD-pNA) (5 µl of 4 mM) (caspase-3-specific substrate), or 5 µl 4 mM […] (Ac-VEID-pNA) (caspase-6-specific substrate), or 5 µl 4 mM Ac-Ile-Glu-Thr-Asp-p-nitroanilide (Ac-IETD-pNA) (caspase-8-specific substrate) was added and the mixture was incubated at 37°C for 120 min (200 µM final concentration). Absorbance was determined at 405 nm on the ELx800 Universal Microplate Reader available from Bio-Tek Instruments Inc. (Vermont, United States of America).

HeLa cells [3] = assay: Mitochondrial membrane potential assay (Mitocapture, flow cytometry); type: cell-based, human; details: 0.5 μM analogues (2-methoxyestradiol-bis-sulphamate 0.55 μM), 24 h
Protocol: Cells (500,000) were seeded with an overnight attachment policy. After 24 h of exposure to 0.5 μM of the sulphamoylated 2ME2 analogues, cells were detached using trypsin and centrifuged at 13,000×g.

caspase-6 = assay: Caspase 6 colorimetric assay; type: cell-based, human; details: 0.5 μM, 24 h
Protocol: as §1

caspase 3 = details: HeLa cells; another study conducted in our laboratory (data not shown); cited from earlier work
HeLa cells [4] = assay: Cell number determination by crystal violet staining; type: cell-based, human; details: for cell growth: 24 h
Protocol: Crystal violet is a method used to determine the number of cells by staining the deoxyribonucleic acid (DNA). Gillies et al. (1986) used crystal violet to quantify cell number in monolayer cultures as a function of the absorbance of the dye taken up by the cells. A dose-dependent study was chosen with a concentration range of 0.1–25 μM since it was previously observed in our laboratory that this concentration series exerts antiproliferative activity in HeLa cells. Exponentially growing HeLa cells were seeded in 96 well tissue culture plates at a cell density of 5,000 cells per well. Cells were incubated at 37°C in a humidified atmosphere containing 5% CO2 for 24 h to allow for attachment. To establish the starting number of cells, a baseline determination was conducted before exposure. Subsequently, the medium was discarded and cells were exposed to the sulphamoylated 2ME2 analogues at a concentration series of 0.1–25 μM for the 24 h at 37°C. Vehicle-treated controls were also included. Cells were fixed with 100 µl of 1% gluteraldehyde (incubation for 15 min at room temperature). Gluteraldehyde was discarded and cells were stained using 100 µl 0.1% crystal violet (incubated at room temperature for 30 min). Excedent crystal violet was discarded and the 96 well plate was submersed under running water. Cells were solubilized using 200 µl 0.2% Triton X-100 and incubated at room temperature for 30 min. Solution (100 µl) was transferred to a new microtitre plate. Afterwards, the absorbance was determined at 570 nm using an ELx800 Universal Microplate Reader available from Bio-Tek Instruments Inc. (Vermont, United States of America).

MDA-MB-231 cells [5] = assay: Double immunofluorescence of intracellular microtubules; type: cell-based, human; details: MDA-MB-231, 24 h; 0.189 μM ESE-15-one, 0.5 μM EMBS and ESE-16, 1μM colchicine
Protocol: (§2) In order to visualize the effect of the 2ME2 analogues on microtubule dynamics and integrity, a double immunofluorescence technique using antibodies against tyrosinated and detyrsosinated tubulin was conducted as described by Paturle-Lafanechère et al. (2004). HeLa and MDA-MB-231 cells were seeded onto sterilized coverslips and allowed to grow to 80% confluency for 48 h. Cells were exposed to 0.189 μM ESE-15-one, 0.5 μM EMBS and ESE-16 along with DMSO (negative control) and 1μM colchicine as a positive control for 24 h. Cells were permeablised permeabilized with warmed OPT buffer (80 mmol/L Pipes, […], […], 0.5% Triton X-100 and glycerol 10%, pH 6.8), followed by fixation in ice-cold methanol at −20°C and were subsequently incubated with the primary antibody cocktail (PBS containing anti-detyrosinated tubulin (L4), anti-[…], BSA 0.3%, tween 0.1%). After incubation, cells were incubated with the secondary antibodies, namely Alexa 488 (Invitrogen) and Cy3 (Jackson ImmunoResearch laboratories). Samples were visualized using a Zeiss AxioImager Z1 microscope controlled by Axiovision softwared (Carl Zeiss) (X63 oil objective). Images were captured using an Ocra R2 N/B camera (Hamamatsu) and assessed for microtubule integrity and ratio of tyrosinated to detyrosinated tubulin.

HeLa cells [6] = assay: as above; type: cell-based, human; details: 24 h, 0.189 μM ESE-15-one, 0.5 μM EMBS and ESE-16, 1μM colchicine
Protocol: as §2

MDA-MB-231 cells [7] = assay: Cytochrome c release (FlowCellect, flow cytometry); type: cell-based, human; details: MDA-MB-231, 0.5 μM analogues (2-methoxyestradiol-bis-sulphamate 0.55 μM), 24 h
Protocol: (§3) This kit utilizes a unique set of buffers that selectively permeabilizes the […] without affecting the mitochondrial membrane. […] Cells (500,000) were seeded with an overnight attachment policy. After 24 h of exposure to 0.5 μM of the sulphamoylated 2ME2 analogues, cells were detached using trypsin and centrifuged at 13,000×g. Cells (500,000) were resuspended in PBS, centrifuged and resuspended in permeabilization buffer (according to supplier's instructions) for 10 min on ice. Subsequently cells were centrifuged, resuspended in 100 µl fixation buffer (according to supplier's instructions) for 20 min at room temperature, centrifuged again and resuspended in blocking buffer (150 µl). After another centrifugation step, cells were centrifuged and resuspended in blocking buffer (twice). Anti-cytochrome c-FITC (10 µl) was added to each sample and samples were incubated for 30 min at room temperature. Cells were centrifuged and blocking buffer (100 µl) was added. After centrifugation, blocking buffer (200 µl) was added to the samples for analysis via flow cytometry (FC500 System flow cytometer, Beckman Coulter South Africa (Pty) Ltd). Cells presenting with cytochrome c release were detected in the fluorescein isothiocyanate (FITC) channel (FL1) showing diffused green fluorescence. Data from at least 10 000 cells were analyzed by means of Cyflogic version 1.2.1 software (Pertu Therho, Turko, Finland).

HeLa cells [8] = assay: Cytochrome c release (FlowCellect, flow cytometry); type: cell-based, human; details: 0.5 μM analogues (2-methoxyestradiol-bis-sulphamate 0.55 μM), 24 h
Protocol: as §3

Row | SMILES | apoptotic bodies (TEM) (HeLa cells [1]) | vacuoles (TEM) (HeLa cells [1]) | EC50 (tubulin) [µM] | concentration with antiproliferative activity (MCF-7 cell line) [µM] | inner mitochondrial membrane potential [2] | inner mitochondrial membrane potential (MDA-MB-231) | cell shrinkage (TEM) (HeLa cells [1]; compared to vehicle-treated cells) | caspase-8 activity increase compared to vehicle-treated cells (caspase-8) [fold] | cells with reduced mitochondrial potential (HeLa cells [3]) [%] | caspase-6 activity ratio compared to vehicle-treated cells (caspase-6) | effect on tubulin polymerization (tubulin; in vitro) | caspase 3 activity increase (caspase 3) [fold] | cell growth (HeLa cells [4]; 0.1 µM) [%] | cell growth (HeLa cells [4]; 0.5 µM, compared to vehicle-treated cells) [%] | concentration that significantly inhibits HeLa proliferation (HeLa cells [4]; 24 h of exposure) [µM] | microtubule integrity (MDA-MB-231 cells [5]) | microtubule integrity (HeLa cells [6]) | Cytochrome c in cytoplasm (cells with cytochrome c release) (MDA-MB-231 cells [7]) [%] | Cytochrome c in cytoplasm (cells with cytochrome c release) (HeLa cells [8]) [%]
1 | COc1cc2c(cc1OS(N)(=O)=O)CC[C@@H]1[C@@H]2CC[C@]2(C)[C@@H](OS(N)(=O)=O)CC[C@@H]12 [2-methoxyestradiol-bis-sulphamate, reference compound] | Apoptotic bodies were observed | vacuoles | 11 | 0.1 to 1 | depolarized | depolarized | – | – | – | – | – | – | – | – | – | – | – | – | –
2 | CCc1cc2c(cc1OS(N)(=O)=O)CC[C@@H]1[C@@H]2CC[C@]2(C)C=CC[C@@H]12 [ESE-16, 2-ethyl-3-O-sulphamoyl-estra-1,3,5 (10) 16-tetraene] | Apoptotic bodies were observed | vacuoles | 5 | – | – | – | shrunken | 1.7 | 68.43 | 3.2 | more pronounced effect on tubulin polymerization; also recorded: pronounced effect comparable with that of colchicine | 8 | 45.59 | 45.30 | 0.5 | detyrosinated microtubule fragments | microtubule abrogation; also recorded: complete microtubule depolymerisation | 30 | 10
3 | COc1cc2c(c(OC)c1OC)-c1ccc(OC)c(=O)cc1[C@@H](NC(C)=O)CC2 [colchicine, reference compound] | – | – | – | – | – | – | – | – | – | – | – | – | – | – | – | complete microtubule depolymerisation | only fragments of detyrosinated microtubules remaining; also recorded: complete microtubule depolymerisation | – | –

Reference: article PMC3764137, “Sulphamoylated 2-Methoxyestradiol Analogues Induce Apoptosis in Adenocarcinoma Cell Lines” (PLoS ONE, 2013)
